Results: patent US11236069B2, “KIF18A inhibitors” (AMGEN INC., priority 2018, dated 2022)

These molecules were tested against Recombinant human KIF18A (1-467 His-tagged) protein (Homo sapiens (Human), UniProt Q8NI77) (assay: KIF18A Enzyme Assay: microtubule-stimulated ATPase activity (ADP-Glo)). Details: read-out: KIF18A ATPase IC50; 30 nM KIF18A, 30 μg/mL pig microtubules, ATP at Km 75 μM, ADP-Glo luminescence.
Chain of Recombinant human KIF18A (1-467 His-tagged) protein (Q8NI77 1-467): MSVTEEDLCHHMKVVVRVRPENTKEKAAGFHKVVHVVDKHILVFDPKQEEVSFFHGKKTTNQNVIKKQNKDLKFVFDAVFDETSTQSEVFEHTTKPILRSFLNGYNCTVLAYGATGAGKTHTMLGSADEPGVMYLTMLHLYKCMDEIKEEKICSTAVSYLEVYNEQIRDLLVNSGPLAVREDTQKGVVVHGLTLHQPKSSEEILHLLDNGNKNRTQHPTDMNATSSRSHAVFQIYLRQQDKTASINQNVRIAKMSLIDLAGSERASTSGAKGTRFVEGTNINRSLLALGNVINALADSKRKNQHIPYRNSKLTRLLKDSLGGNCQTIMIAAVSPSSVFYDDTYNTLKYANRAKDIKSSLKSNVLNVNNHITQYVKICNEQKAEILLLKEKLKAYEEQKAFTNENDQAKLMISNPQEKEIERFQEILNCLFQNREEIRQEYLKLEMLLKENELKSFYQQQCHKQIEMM
Chain of Recombinant human KIF18A (1-467 His-tagged) protein (P02550 whole entry partner): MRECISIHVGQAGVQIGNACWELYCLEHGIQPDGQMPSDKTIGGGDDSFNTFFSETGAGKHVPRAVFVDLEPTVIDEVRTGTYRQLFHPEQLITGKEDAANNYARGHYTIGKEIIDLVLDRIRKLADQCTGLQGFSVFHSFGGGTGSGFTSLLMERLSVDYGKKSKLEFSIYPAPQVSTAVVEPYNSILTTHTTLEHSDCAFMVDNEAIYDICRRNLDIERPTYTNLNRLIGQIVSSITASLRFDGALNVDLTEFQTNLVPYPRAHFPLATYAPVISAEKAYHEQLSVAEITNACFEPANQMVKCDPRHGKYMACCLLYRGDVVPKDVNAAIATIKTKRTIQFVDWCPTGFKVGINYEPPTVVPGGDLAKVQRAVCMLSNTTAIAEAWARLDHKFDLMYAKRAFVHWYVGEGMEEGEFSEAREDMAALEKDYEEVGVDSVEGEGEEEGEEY
Chain of Recombinant human KIF18A (1-467 His-tagged) protein (P02554 whole entry partner): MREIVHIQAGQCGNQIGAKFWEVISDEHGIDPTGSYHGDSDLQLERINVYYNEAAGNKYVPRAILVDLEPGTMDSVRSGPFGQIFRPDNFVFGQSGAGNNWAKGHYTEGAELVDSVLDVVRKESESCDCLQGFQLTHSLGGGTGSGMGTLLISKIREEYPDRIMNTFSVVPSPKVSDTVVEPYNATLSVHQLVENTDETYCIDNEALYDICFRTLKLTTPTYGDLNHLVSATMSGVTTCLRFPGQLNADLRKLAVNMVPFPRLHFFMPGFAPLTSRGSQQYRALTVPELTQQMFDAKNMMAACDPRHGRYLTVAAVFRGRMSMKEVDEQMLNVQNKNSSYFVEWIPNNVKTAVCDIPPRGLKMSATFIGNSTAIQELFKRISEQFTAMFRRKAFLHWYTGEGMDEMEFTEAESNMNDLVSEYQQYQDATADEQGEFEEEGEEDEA
From the text: KIF18A Enzyme Assay: Microtubule-stimulated ATPase activity assay is used to measure KIF18A enzyme activity after treatment with compound. Compounds were 2-fold serially diluted in DMSO (Sigma Inc) over 22-point concentration range. […] The assay measures ADP formed from the ATPase reaction.

Compound	IC50
C[C@@H]1CN(c2nccc(NC(=O)c3ccc(NS(=O)(=O)CCO)cc3N3CCC4(CC3)CC4)n2)CCO1 [Example 6-4, (R)-4-((2-Hydroxyethyl)sulfonamido)-N-(2-(2-methylmorpholino)pyrimidin-4-yl)-2-(6-azaspiro[2.5]octan-6-yl)benzamide]	32 nM
Cc1cc(NC(=O)c2ccc(NS(=O)(=O)CC3CC3)cc2N2CCC3(CC2)CC3)nc(N2CCC(F)(F)CC2)n1 [Example 6-18, 4-((Cyclopropylmethyl)sulfon-amido)-N-(2-(4,4-difluoropiperidin-1-yl)-6-methylpyrimidin-4-yl)-2-(6-azaspiro[2.5]octan-6-yl)benzamide]	85 nM
COc1cc(C(=O)Nc2cc(C)nc(N3CCC(F)(F)CC3)n2)c(N2CCC3(CC2)CC3)cc1NS(=O)(=O)CCO [Example 6-36, N-(2-(4,4-Difluoropiperidin-1-yl)-6-methylpyrimidin-4-yl)-4-((2-hydroxyethyl)sulfonamido)-5-methoxy-2-(6-azaspiro[2.5]octan-6-yl)benzamide]	114 nM
Cc1cc(NC(=O)c2ccc(NS(=O)(=O)CCO)cc2N2CCC3(CC2)CC3)nc(N2CCO[C@H](C)C2)n1 [Example 3, (R)-4-((2-Hydroxyethyl)sulfonamido)-N-(6-methyl-2-(2-methylmorpholino)pyrimidin-4-yl)-2-(6-azaspiro[2.5]octan-6-yl)benzamide]	57 nM
Cc1cc(NC(=O)c2ccc(NS(=O)(=O)CCCO)cc2N2CCC3(CC2)CC3)nc(N2CCC(F)(F)CC2)n1 [Example 6-15, N-(2-(4,4-Difluoropiperidin-1-yl)-6-methylpyrimidin-4-yl)-4-((3-hydroxypropyl)sulfonamido)-2-(6-azaspiro[2.5]octan-6-yl)benzamide]	86 nM
Cc1cc(NC(=O)c2ccc(S(=O)(=O)C3CN(C)C3)cc2N2CCC3(CC2)CC3)nc(N2CCC(F)(F)CC2)n1 [Example 22, N-(2-(4,4-Difluoropiperidin-1-yl)-6-methylpyrimidin-4-yl)-4-((1-methylazetidin-3-yl)sulfonyl)-2-(6-azaspiro[2.5]octan-6-yl)benzamide]	406 nM
Cc1cc(NC(=O)c2ccc(S(=O)(=O)C3CNC3)cc2N2CCC3(CC2)CC3)nc(N2CCC(F)(F)CC2)n1 [Example 21, 4-(Azetidin-3-ylsulfonyl)-N-(2-(4,4-difluoropiperidin-1-yl)-6-methylpyrimidin-4-yl)-2-(6-azaspiro[2.5]octan-6-yl)benzamide]	40 nM
Cc1cc(NC(=O)c2ccc(NS(=O)(=O)CF)cc2N2CCC3(CC2)CC3)nc(N2CCC(F)CC2)n1 [Example 6-1, 4-((Fluoromethyl)sulfonamido)-N-(2-(4-fluoropiperidin-1-yl)-6-methylpyrimidin-4-yl)-2-(6-azaspiro[2.5]octan-6-yl)benzamide]	62 nM

Next, values leading:

IC50	Compound
45 nM	Cc1cc(NC(=O)c2ccc(NS(=O)(=O)CCO)cc2N2CCC3(CC2)CC3)nc(N2CCCC(F)(F)C2)n1 [Example 11-39, N-(2-(3,3-Difluoropiperidin-1-yl)-6-methylpyrimidin-4-yl)-4-((2-hydroxyethyl)sulfonamido)-2-(6-azaspiro[2.5]octan-6-yl)benzamide]
63 nM	Cc1cc(NC(=O)c2ccc(S(=O)(=O)NCCO)cc2N2CCC3(CC2)CC3)nc(N2CCC(F)(F)CC2)n1 [Example 17-3, N-(2-(4,4-Difluoropiperidin-1-yl)-6-methylpyrimidin-4-yl)-4-(N-(2-hydroxyethyl)sulfamoyl)-2-(6-azaspiro[2.5]octan-6-yl)benzamide]
56 nM	Cc1cc(NC(=O)c2ccc(NS(=O)(=O)C(C)C)cc2N2CCC3(CC2)CC3)nc(N2CC(F)(F)C2)n1 [Example 11-75, N-(2-(3,3-Difluoroazetidin-1-yl)-6-methylpyrimidin-4-yl)-4-((1-methylethyl)sulfonamido)-2-(6-azaspiro[2.5]octan-6-yl)benzamide]
109 nM	Cc1cc(NC(=O)c2ccc(NS(=O)(=O)CCO)cc2N2CCC3(CCC3)CC2)nc(N2CCC(F)(F)CC2)n1 [Example 11-40, N-(2-(4,4-Difluoropiperidin-1-yl)-6-methylpyrimidin-4-yl)-4-((2-hydroxyethyl)sulfonamido)-2-(7-azaspiro[3.5]nonan-7-yl)benzamide]
33 nM	Cc1cc(NC(=O)c2ccc(NS(=O)(=O)CCO)cc2N2CCC3(CC2)CC3)nc(N2CCC(F)(F)C2)n1 [Example 11-30, N-(2-(3,3-Difluoropyrrolidin-1-yl)-6-methylpyrim-4-yl)-4-((2-hydroxyethyl)sulfonamido)-2-(6-azaspiro[2.5]octan-6-yl)benzamide]
95 nM	Cc1cc(NC(=O)c2ccc(NS(=O)(=O)CCO)cc2N2CCC3(CC2)CC3)nc(N2[C@H](C)COC[C@@H]2C)n1 [Example 11-48, N-(2-((3S,5R)-3,5-Dimethylmorpholino)-6-methylpyrimidin-4-yl)-4-((2-hydroxyethyl)sulfonamido)-2-(6-azaspiro[2.5]octan-6-yl)benzamide]
182 nM	Cc1cc(NC(=O)c2ccc(S(=O)(=O)C3COC3)cc2N2CCC3(CC2)CC3)nc(N2CCC(F)(F)CC2)n1 [Example 14-1, N-(2-(4,4-Difluoropiperidin-1-yl)-6-methylpyrimidin-4-yl)-4-(oxetan-3-ylsulfonyl)-2-(6-azaspiro[2.5]octan-6-yl)benzamide]
48.9 nM	Cc1cc(NC(=O)c2ccc(NS(=O)(=O)C3COC3)cc2N2CCC3(CC2)CC3)nc(N2CC(F)(F)C2)n1 [Example 11-23, N-(2-(3,3-Difluoroazetidin-1-yl)-6-methylpyrimidin-4-yl)-4-(oxetane-3-sulfonamido)-2-(6-azaspiro[2.5]octan-6-yl)benzamide]
42 nM	N=S(=O)(c1ccc(C(=O)Nc2ccnc(N3CCC(F)(F)CC3)c2)c(N2CCC3(CC2)CC3)c1)C1CC1 (stereo not drawn) [Example 19-6, 4-(Cyclopropanesulfonimidoyl)-N-(2-(4,4-difluoropiperidin-1-yl)pyridin-4-yl)-2-(6-azaspiro[2.5]octan-6-yl)benzamide]
89 nM	Cc1cc(NC(=O)c2ccc(NS(=O)(=O)[C@H](CO)CF)cc2N2CCC3(CC2)CC3)nc(N2CCC(F)(F)CC2)n1 [Example 16-1, (R)-N-(2-(4,4-Difluoropiperidin-1-yl)-6-methylpyrimidin-4-yl)-4-((2-fluoro-1-(hydroxymethyl)ethyl)sulfonamido)-2-(6-azaspiro[2.5]octan-6-yl)benzamide]
43 nM	Cc1cc(NC(=O)c2ccc(NS(=O)(=O)CCO)cc2N2CCC3(CC2)CC3)nc(N2CCC[C@H](C#N)C2)n1 [Example 11-35, (S)-N-(2-(3-Cyanopiperidin-1-yl)-6-methylpyrimidin-4-yl)-4-((2-hydroxyethyl)sulfonamido)-2-(6-azaspiro[2.5]octan-6-yl)benzamide]
98 nM	Cc1cc(NC(=O)c2ccc(NS(=O)(=O)C(C)(C)C)cc2N2CCC3(CC2)CC3)nc(N2CC(F)(F)C2)n1 [Example 11-83, N-(2-(3,3-Difluoroazetidin-1-yl)-6-methylpyrimidin-4-yl)-4-((1,1-dimethylethyl)sulfonamido)-2-(6-azaspiro[2.5]octan-6-yl)benzamide]
147 nM	Cc1cc(NC(=O)c2ccc(S(=O)(=O)N[C@@H](C)CO)cc2N2CCC3(CC2)CC3)nc(N2CCC(F)(F)CC2)n1 [Example 17-7, (S)-N-(2-(4,4-Difluoropiperidin-1-yl)-6-methylpyrimidin-4-yl)-4-(N-(1-hydroxypropan-2-yl)sulfamoyl)-2-(6-azaspiro[2.5]octan-6-yl)benzamide]
